From patent EP0908457B1, “3-(1,2-benzisothiazol- and isoxazol-5-Y1)-2,4(1H,3H)-pyrimidinedione or thione and 3-(1,2-benzisothiazol- and isoxazol-5-y1)-4(3H)-pyrimidinone or thione herbicidal agents” (BASF AKTIENGESELLSCHAFT, priority 1997, dated 1999)

Assays:
Sagittaria pygmaea, L. = experiment: Preemergence weed control under flooded paddy conditions, SAGPY (Arrowhead (Pygmaea)); assay type: in vivo; details: preemergence, flooded paddy; for herbicidal effect rating, SAGPY: meaning of each grade not given here
[1] = tested on: Oryza sativa, (L.) Tebonnet; experiment: Rice tolerance to post-transplant applications under flooded paddy conditions (Example 187), ORYSAT (Rice, Tebonnet); for herbicidal effect rating ORYSAT: meaning of each grade not given here
[2] = tested on: Cyperus serotinus, Rottb.; experiment: Preemergence weed control under flooded paddy conditions, CYPSE (Flatsedge); assay type: in vivo; details: preemergence; for herbicidal effect rating, CYPSE: meaning of each grade not given here
[3] = tested on: Echinochloa oryzoides (Ard.) Fritsch.; experiment: Preemergence weed control under flooded paddy conditions, ECHORC (Watergrass (Calif.)); assay type: in vivo; details: preemergence, flooded paddy; for herbicidal effect rating, ECHORC: meaning of each grade not given here
Cyperus iria = experiment: Preemergence weed control under flooded paddy conditions, CYPIR (Rice Flatsedge); assay type: in vivo; details: preemergence, flooded paddy; for herbicidal effect rating, CYPIR: meaning of each grade not given here
[4] = tested on: Monochoria vaginalis, Presl.; experiment: Preemergence weed control under flooded paddy conditions, MOOVA (Monochoria); assay type: in vivo; details: preemergence, flooded paddy; for herbicidal effect rating, MOOVA: meaning of each grade not given here
[5] = Rate 0.0320 kg/ha, rated three to four weeks after treatment
[6] = Rate 0.0620 kg/ha, rated three to four weeks after treatment
[7] = Rate 0.1250 kg/ha, rated three to four weeks after treatment
[8] = Rate 0.2500 kg/ha, rated three to four weeks after treatment
[9] = Rate 0.5000 kg/ha, rated three to four weeks after treatment
[10] = Rate 0.0313 kg/ha, rated three to four weeks after treatment
[11] = Rate 0.0625 kg/ha, rated three to four weeks after treatment
[12] = Rate 0.0320 kg/ha, rated 3-4 weeks after treatment
[13] = Rate 0.0620 kg/ha, rated 3-4 weeks after treatment
[14] = Rate 0.1250 kg/ha, rated 3-4 weeks after treatment
[15] = Rate 0.2500 kg/ha, rated 3-4 weeks after treatment
[16] = Rate 0.5000 kg/ha, rated 3-4 weeks after treatment

Cc1nsc2cc(F)c(-n3c(=O)cc(C(F)(F)F)n(C)c3=O)cc12 [Example 366, 2,4(1H,3H)-Pyrimidinedione, 3-(6-fluoro-3-methyl-1,2-benzisothiazol-5-yl)-1-methyl-6-(trifluoromethyl)-]
herbicidal effect rating, SAGPY (Sagittaria pygmaea, L.; [5]): 7.0
herbicidal effect rating, SAGPY (Sagittaria pygmaea, L.; [6]): 8.0
herbicidal effect rating, SAGPY (Sagittaria pygmaea, L.; [7]): 9.0
herbicidal effect rating, SAGPY (Sagittaria pygmaea, L.; [8]): 9.0
herbicidal effect rating, SAGPY (Sagittaria pygmaea, L.; [9]): 9.0
herbicidal effect rating ORYSAT [1, 5]: 7.5
herbicidal effect rating ORYSAT [1, 6]: 9.0
herbicidal effect rating ORYSAT [1, 7]: 9.0
herbicidal effect rating ORYSAT [1, 8]: 9.0
herbicidal effect rating ORYSAT [1, 9]: 9.0
herbicidal effect rating, CYPSE [2, 5]: 8.0
herbicidal effect rating, CYPSE [2, 6]: 8.0
herbicidal effect rating, CYPSE [2, 7]: 9.0
herbicidal effect rating, CYPSE [2, 8]: 9.0
herbicidal effect rating, CYPSE [2, 9]: 9.0
herbicidal effect rating, ECHORC [3, 5]: 8.0
herbicidal effect rating, ECHORC [3, 6]: 8.5
herbicidal effect rating, ECHORC [3, 7]: 9.0
herbicidal effect rating, ECHORC [3, 8]: 9.0
herbicidal effect rating, ECHORC [3, 9]: 9.0
herbicidal effect rating, CYPIR (Cyperus iria; [5]): 8.5
herbicidal effect rating, CYPIR (Cyperus iria; [6]): 9.0
herbicidal effect rating, CYPIR (Cyperus iria; [7]): 9.0
herbicidal effect rating, CYPIR (Cyperus iria; [8]): 9.0
herbicidal effect rating, CYPIR (Cyperus iria; [9]): 9.0
herbicidal effect rating, MOOVA [4, 5]: 9.0
herbicidal effect rating, MOOVA [4, 6]: 9.0
herbicidal effect rating, MOOVA [4, 7]: 9.0
herbicidal effect rating, MOOVA [4, 8]: 9.0
herbicidal effect rating, MOOVA [4, 9]: 9.0

Cn1c(C(F)(F)F)cc(=O)n(-c2ccc3snc(COCc4cccc([N+](=O)[O-])c4)c3c2)c1=O [Example 588, 2,4(1H,3H)-Pyrimidinedione, 1-methyl-3-{3-{[(m-nitrobenzyl)oxy]methyl}-1,2-benzisothiazol-5-yl}-6-(trifluoromethyl)-]
herbicidal effect rating, SAGPY (Sagittaria pygmaea, L.; [5]): 0.0
herbicidal effect rating, SAGPY (Sagittaria pygmaea, L.; [6]): 0.0
herbicidal effect rating, SAGPY (Sagittaria pygmaea, L.; [7]): 0.0
herbicidal effect rating, SAGPY (Sagittaria pygmaea, L.; [8]): 0.0
herbicidal effect rating ORYSAT [1, 5]: 0.0
herbicidal effect rating ORYSAT [1, 6]: 3.0
herbicidal effect rating ORYSAT [1, 7]: 3.0
herbicidal effect rating ORYSAT [1, 8]: 3.0
herbicidal effect rating, CYPSE [2, 5]: 0.0
herbicidal effect rating, CYPSE [2, 6]: 0.0
herbicidal effect rating, CYPSE [2, 7]: 5.0
herbicidal effect rating, CYPSE [2, 8]: 5.0
herbicidal effect rating, ECHORC [3, 5]: 4.0
herbicidal effect rating, ECHORC [3, 6]: 7.0
herbicidal effect rating, ECHORC [3, 7]: 9.0
herbicidal effect rating, ECHORC [3, 8]: 7.0
herbicidal effect rating, CYPIR (Cyperus iria; [5]): 0.0
herbicidal effect rating, CYPIR (Cyperus iria; [6]): 2.0
herbicidal effect rating, CYPIR (Cyperus iria; [7]): 6.0
herbicidal effect rating, CYPIR (Cyperus iria; [8]): 6.0
herbicidal effect rating, MOOVA [4, 7]: 7.0
herbicidal effect rating, MOOVA [4, 8]: 8.0

C=CCOc1nc(C(F)(F)F)cc(=O)n1-c1ccc2snc(-c3cc(C)ccc3OC)c2c1 [Example 245, 2-(Allyloxy)-3-[3-(6-methoxy-m-tolyl)-1,2-benzisothiazol-5-yl]-6-(trifluoromethyl)-4(3H)-pyrimidinone]
SAGPY herbicidal effect rating (Sagittaria pygmaea, L.; [10]): 0.0
SAGPY herbicidal effect rating (Sagittaria pygmaea, L.; [11]): 0.0
SAGPY herbicidal effect rating (Sagittaria pygmaea, L.; [7]): 0.0
SAGPY herbicidal effect rating (Sagittaria pygmaea, L.; [8]): 0.0
ORYSAT herbicidal effect rating [1, 10]: 0.0
ORYSAT herbicidal effect rating [1, 11]: 0.0
ORYSAT herbicidal effect rating [1, 7]: 0.0
ORYSAT herbicidal effect rating [1, 8]: 0.0
CYPSE herbicidal effect rating [2, 10]: 0.0
CYPSE herbicidal effect rating [2, 11]: 0.0
CYPSE herbicidal effect rating [2, 7]: 0.0
CYPSE herbicidal effect rating [2, 8]: 0.0
ECHORC herbicidal effect rating [3, 10]: 0.0
ECHORC herbicidal effect rating [3, 11]: 0.0
ECHORC herbicidal effect rating [3, 7]: 0.0
ECHORC herbicidal effect rating [3, 8]: 0.0
CYPIR herbicidal effect rating (Cyperus iria; [10]): 0.0
CYPIR herbicidal effect rating (Cyperus iria; [11]): 0.0
CYPIR herbicidal effect rating (Cyperus iria; [7]): 0.0
CYPIR herbicidal effect rating (Cyperus iria; [8]): 0.0
MOOVA herbicidal effect rating [4, 10]: 0.0
MOOVA herbicidal effect rating [4, 11]: 0.0
MOOVA herbicidal effect rating [4, 7]: 0.0
MOOVA herbicidal effect rating [4, 8]: 0.0

Cc1ccc(OC(C)C(=O)c2ccc(C)c(C)c2)c(-c2nsc3ccc(-n4c(=O)cc(C(F)(F)F)n(C)c4=O)cc23)c1 (centres unmarked) [Example 542, 2,4(1H,3H)-Pyrimidinedione, 3-{3-{6-[1-(3,4-dimethylbenzoyl)ethoxy]-m-tolyl}-1,2-benzisothiazol-5-yl}-1-methyl-6-(trifluoromethyl)-]
herbicidal effect rating, SAGPY (Sagittaria pygmaea, L.; [12]): 0.0
herbicidal effect rating, SAGPY (Sagittaria pygmaea, L.; [13]): 0.0
herbicidal effect rating, SAGPY (Sagittaria pygmaea, L.; [14]): 0.0
herbicidal effect rating, SAGPY (Sagittaria pygmaea, L.; [15]): 0.0
herbicidal effect rating, SAGPY (Sagittaria pygmaea, L.; [16]): 9.0
herbicidal effect rating ORYSAT [1, 12]: 0.0
herbicidal effect rating ORYSAT [1, 13]: 0.0
herbicidal effect rating ORYSAT [1, 14]: 0.0
herbicidal effect rating ORYSAT [1, 15]: 0.0
herbicidal effect rating ORYSAT [1, 16]: 2.0
herbicidal effect rating, CYPSE [2, 12]: 0.0
herbicidal effect rating, CYPSE [2, 13]: 0.0
herbicidal effect rating, CYPSE [2, 14]: 0.0
herbicidal effect rating, CYPSE [2, 16]: 0.0
herbicidal effect rating, ECHORC [3, 12]: 1.7
herbicidal effect rating, ECHORC [3, 13]: 2.7
herbicidal effect rating, ECHORC [3, 14]: 4.3
herbicidal effect rating, ECHORC [3, 15]: 8.0
herbicidal effect rating, ECHORC [3, 16]: 9.0
herbicidal effect rating, CYPIR (Cyperus iria; [12]): 0.0
herbicidal effect rating, CYPIR (Cyperus iria; [13]): 0.0
herbicidal effect rating, CYPIR (Cyperus iria; [14]): 2.0
herbicidal effect rating, CYPIR (Cyperus iria; [15]): 4.0
herbicidal effect rating, CYPIR (Cyperus iria; [16]): 9.0
herbicidal effect rating, MOOVA [4, 12]: 7.0
herbicidal effect rating, MOOVA [4, 13]: 9.0
herbicidal effect rating, MOOVA [4, 14]: 9.0
herbicidal effect rating, MOOVA [4, 15]: 9.0
herbicidal effect rating, MOOVA [4, 16]: 9.0

Cc1ccc(OCC(=O)NS(=O)(=O)C(C)C)c(-c2nsc3ccc(-n4c(=O)cc(C(F)(F)F)n(C)c4=O)cc23)c1 [Example 560, Acetamide, 2-{{2-{5-[3,6-dihydro-3-methyl-2,6-dioxo-4-(trifluoromethyl)-1(2H)-pyrimidinyl]-1,2-benzisothiazol-3-yl}-p-tolyl}oxy}-N-(isopropylsulfonyl)-]
herbicidal effect rating, SAGPY (Sagittaria pygmaea, L.; [12]): 0.0
herbicidal effect rating, SAGPY (Sagittaria pygmaea, L.; [13]): 0.0
herbicidal effect rating, SAGPY (Sagittaria pygmaea, L.; [14]): 0.0
herbicidal effect rating, SAGPY (Sagittaria pygmaea, L.; [15]): 0.0
herbicidal effect rating, SAGPY (Sagittaria pygmaea, L.; [16]): 0.0
herbicidal effect rating ORYSAT [1, 12]: 3.0
herbicidal effect rating ORYSAT [1, 13]: 3.0
herbicidal effect rating ORYSAT [1, 14]: 2.0
herbicidal effect rating ORYSAT [1, 15]: 4.0
herbicidal effect rating ORYSAT [1, 16]: 2.0
herbicidal effect rating, CYPSE [2, 12]: 0.0
herbicidal effect rating, CYPSE [2, 13]: 2.0
herbicidal effect rating, CYPSE [2, 14]: 7.0
herbicidal effect rating, CYPSE [2, 15]: 9.0
herbicidal effect rating, CYPSE [2, 16]: 9.0
herbicidal effect rating, ECHORC [3, 12]: 2.0
herbicidal effect rating, ECHORC [3, 13]: 3.0
herbicidal effect rating, ECHORC [3, 14]: 4.6
herbicidal effect rating, ECHORC [3, 15]: 9.0
herbicidal effect rating, ECHORC [3, 16]: 7.0
herbicidal effect rating, CYPIR (Cyperus iria; [12]): 0.0
herbicidal effect rating, CYPIR (Cyperus iria; [13]): 2.0
herbicidal effect rating, CYPIR (Cyperus iria; [14]): 7.0
herbicidal effect rating, CYPIR (Cyperus iria; [15]): 9.0
herbicidal effect rating, CYPIR (Cyperus iria; [16]): 3.0
herbicidal effect rating, MOOVA [4, 12]: 8.0
herbicidal effect rating, MOOVA [4, 13]: 9.0
herbicidal effect rating, MOOVA [4, 14]: 9.0
herbicidal effect rating, MOOVA [4, 15]: 9.0
herbicidal effect rating, MOOVA [4, 16]: 9.0

Cn1c(C(F)(F)F)cc(=O)n(-c2ccc3snc(C(C#N)=Cc4ccc(O)cc4)c3c2)c1=O [Example 600, 1,2-Benzisothiazole-3-acetonitrile, 5-[3,6-dihydro-3-methyl-2,6-dioxo-4-(trifluoromethyl)-1(2H)-pyrimidinyl]-alpha-(p-hydroxybenzylidene)-]
herbicidal effect rating, SAGPY (Sagittaria pygmaea, L.; [5]): 0.0
herbicidal effect rating, SAGPY (Sagittaria pygmaea, L.; [6]): 0.0
herbicidal effect rating, SAGPY (Sagittaria pygmaea, L.; [7]): 0.0
herbicidal effect rating, SAGPY (Sagittaria pygmaea, L.; [8]): 0.0
herbicidal effect rating ORYSAT [1, 5]: 3.0
herbicidal effect rating ORYSAT [1, 6]: 3.0
herbicidal effect rating ORYSAT [1, 7]: 4.0
herbicidal effect rating ORYSAT [1, 8]: 4.0
herbicidal effect rating, CYPSE [2, 5]: 0.0
herbicidal effect rating, CYPSE [2, 6]: 0.0
herbicidal effect rating, CYPSE [2, 8]: 0.0
herbicidal effect rating, ECHORC [3, 5]: 0.0
herbicidal effect rating, ECHORC [3, 6]: 0.0
herbicidal effect rating, ECHORC [3, 7]: 0.0
herbicidal effect rating, ECHORC [3, 8]: 2.0
herbicidal effect rating, CYPIR (Cyperus iria; [5]): 0.0
herbicidal effect rating, CYPIR (Cyperus iria; [6]): 0.0
herbicidal effect rating, CYPIR (Cyperus iria; [7]): 0.0
herbicidal effect rating, CYPIR (Cyperus iria; [8]): 2.0
herbicidal effect rating, MOOVA [4, 5]: 6.0
herbicidal effect rating, MOOVA [4, 6]: 6.0
herbicidal effect rating, MOOVA [4, 7]: 7.0
herbicidal effect rating, MOOVA [4, 8]: 7.0
